Experimental findings from article PMC7391726, “Fatty acid mimetic PBI-4547 restores metabolic homeostasis via GPR84 in mice with non-alcoholic fatty liver disease” (Scientific Reports, 2020) are described below.

The target of one experiment is T1, GPR84 (Homo sapiens, UniProt Q9NQS5).
T1 construct: expressed in transfected cells; host or cells: HEK293
The experiment in a line: BRET Gαi2 activation biosensor in HEK293 cells transfected with GPR84. Format: cell-based. The source says:
PBI-4547 (2-[3,5-dipentylphenyl]acetate sodium salt) is a medium-chain FA (MCFA) mimetic (Fig. 1A). Accordingly, we examined the signaling properties of PBI-4547 on receptors known to be activated by MCFAs. […] This biosensor consisted of an Rluc8-tagged Gαi2 subunit, a GFP10-tagged Gγ2 subunit, and an untagged Gβ1. Agonist stimulation and receptor activation triggers a physical separation between the Gα-Rluc8 donor and the GFP10-Gγ2 acceptor, resulting in a decrease in BRET signal, whose amplitude is correlated to ligand efficacy. […] (A) Chemical structure of PBI-4547. (B) Gi pathway activation was monitored in HEK293 cells transfected with GPR84 and the Gαi2 activation biosensor. […] (C) β-arrestin 2 recruitment to activated GPR120 receptor was monitored in HEK293 cells transfected with RLuc8-β-arrestin 2 and GPR120-GFP10. (D) Cells transfected with GPR40 and Gαq or Gαi2 activation biosensor were exposed to increasing concentrations of PBI-4547 or to 500 µM of sodium decanoate, and BRET variation compared with vehicle was measured. Cells were exposed to increasing concentrations of PBI-4547 or to 100 µM of GW9508, and BRET variation compared with vehicle was measured. (E) LanthaScreen TR-FRET competitive binding assay of PBI-4547 and PPAR control agonists to the LBD of PPARα, PPARδ and PPARγ. (F) Cell-based GAL4 transactivation assay in HEK293 cells transfected with the LBD of PPARα, PPARδ or PPARγ, and treated with increasing concentrations of PBI-4547 or PPAR control agonists. Data in (B–D) are expressed as means ± SEM of 4–5 experiments; data in (E,F) are from a representative experiment from a total of 3 to 4 independent experiments. BRET measurements in transiently transfected HEK293 cells were performed as previously described. Ligands were incubated with cells at room temperature for 10 min (G protein biosensors) or 25 min (β-arrestin/GPR120) before collecting BRET[2] readings between Rluc8 and GFP10.

A further experiment addresses T2, PPARδ (Homo sapiens, UniProt Q03181).
T2 construct: PPARδ (S139–Y440); expressed in transfected cells; host or cells: HEK293
T2 sequence (Q03181 139-441 limits assumed): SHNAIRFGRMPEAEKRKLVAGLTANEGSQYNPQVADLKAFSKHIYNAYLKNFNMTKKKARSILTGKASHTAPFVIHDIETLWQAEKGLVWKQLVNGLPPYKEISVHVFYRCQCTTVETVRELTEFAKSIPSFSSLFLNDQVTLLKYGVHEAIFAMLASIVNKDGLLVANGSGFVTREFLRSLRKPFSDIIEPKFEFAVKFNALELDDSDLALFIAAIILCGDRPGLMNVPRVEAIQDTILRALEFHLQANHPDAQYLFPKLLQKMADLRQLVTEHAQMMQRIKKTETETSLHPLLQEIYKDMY
The experiment in a line: Cell-based GAL4 transactivation assay in HEK293 cells, PPARδ LBD. The settings on record: compared to the control agonist GW0742. The source says:
To determine the transcriptional activity of PBI-4547, a cell-based GAL4 transactivation assay in HEK293 cells transfected with either PPARα, PPARδ, or PPARγ LBD was used. […] However, PBI-4547 only partially activated PPARγ transcriptional activity, with a relative maximal efficacy of 38% of the control agonist rosiglitazone.
Generation of the Gαi2, Gαq, and GPR40/β-arrestin-2 BRET biosensors have been described previously. A plasmid encoding the human GPR120-L (long isoform) cDNA was obtained from R&D Systems. GPR120-S (short isoform) was generated by replacing the BglII-BsgI fragment from GPR120-L by a gBlock gene fragment (Integrated DNA Technologies, Coralville, IA) lacking the DNA sequence corresponding to the extra 16 amino acids found in the third intracellular loop of the long form. The GPR120-GFP10 construct was generated by inserting PCR-amplified GPR120-S (without its stop codon) in place of GPR40 in the GPR40-GFP10 plasmid. […]
HEK293 cells were co-transfected with pGL4.35[luc2P/9XGAL4UAS/Hygro] and GAL4-PPAR-Rluc plasmids, and after 24 h of incubation were treated with compounds for 24 h. Luciferase activity was determined with the Dual Glo luciferase assay (Promega). Firefly luminescence was normalized to the constitutively expressed Renilla luminescence, and results expressed as fold induction of vehicle control.

Another experiment deals with ob/ob mice. Briefly: ob/ob leptin-deficient genetic mouse model of metabolic syndrome. Format: in vivo. The source says: We next sought to confirm our above findings obtained from the diet-induced model of obesity by using the ob/ob leptin-deficient genetic mouse model of metabolic syndrome. […] Additionally, the mRNA expression profiles of glucose- and FA-related genes in liver (Fig. S4D,E) and WAT (Fig. S5) also differed between pioglitazone- and PBI-4547-treated mice.

T1 sequence (Q9NQS5 whole entry, species assumed): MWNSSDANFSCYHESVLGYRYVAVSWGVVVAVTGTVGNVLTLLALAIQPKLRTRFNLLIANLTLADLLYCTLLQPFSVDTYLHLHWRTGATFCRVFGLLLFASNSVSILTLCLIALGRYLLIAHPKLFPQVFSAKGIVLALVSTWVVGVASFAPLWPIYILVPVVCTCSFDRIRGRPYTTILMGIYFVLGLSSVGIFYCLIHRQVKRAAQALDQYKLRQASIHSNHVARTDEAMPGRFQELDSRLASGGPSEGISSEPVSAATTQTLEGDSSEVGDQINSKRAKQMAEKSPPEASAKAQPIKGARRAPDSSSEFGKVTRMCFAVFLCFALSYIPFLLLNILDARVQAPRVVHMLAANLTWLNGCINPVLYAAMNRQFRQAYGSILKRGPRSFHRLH

Consider `CCCCCc1cc(CCCCC)cc(CC(=O)[O-])c1.[Na+]` [PBI-4547, 2-[3,5-dipentylphenyl]acetate sodium salt], for which the IC50 on GPR84 (co-treated with 125 mM sodium decanoate and increasing concentrations of PBI-4547, read-out: IC50, inhibition of GPR84/Gαi2 activation) was found to be 17 µM. The “GPR84/Gαi2-mediated BRET signal modulation (agonist mode)” value on GPR84 (compound alone vs vehicle) is “did not lead to GPR84/Gαi2-mediated BRET signal modulation”. In addition, the PPARδ transcriptional activity entry on PPARδ was “very weak”. In addition, in the experiment on ob/ob mice, the bodyweight entry was “significantly reduced” and the “prevention of clinical manifestations of fatty liver disease (liver histology)” value is “more effective than pioglitazone”.
